Reference: patent US11427564B2, “Heteroaryl pyrimidine compound and pest control agent” (Nippon Soda Co., Ltd., priority 2017, dated 2022)

Columns and labels:
Aphis craccivora = assay: Efficacy test against Aphis craccivora (spray on cowpea plants); type: in vivo; settings: 125 ppm sprayed on cowpea plants infested with nymphs; 25° C., humidity 60%; 4 days after spraying
Protocol: The insecticidal rate was calculated by the following formula. Insecticidal rate (%)=(number of dead insects/number of tested insects)×100 Cowpea plants were raised in No. 3 pots, and nymphs of Aphis craccivora were inoculated on the primary leaves. The emulsion (1) was diluted with water so that the concentration of the compound of the present invention was 125 ppm, and the diluent was sprayed on the cowpea plants infested with nymphs of Aphis craccivora. The cowpea plants were placed in a thermostatic chamber with a temperature of 25° C. and a humidity of 60%. […] The test was repeated twice.

Plutella xylostella = assay: Efficacy test against Plutella xylostella (cabbage leaf immersion); type: in vivo; settings: 125 ppm, cabbage leaf immersed 30 seconds; second instar larvae; 25° C., humidity 60%; 3 days after insect release
Protocol: The insecticidal rate was calculated by the following formula. Insecticidal rate (%)=(number of dead insects/number of tested insects)×100 The emulsion (1) was diluted with water so that the concentration of the compound of the present invention was 125 ppm. A cabbage leaf was immersed in the diluent for 30 seconds. This cabbage leaf was placed in a petri dish. Five second instar larvae of Plutella xylostella were released therein. The petri dish was placed in a thermostatic chamber with a temperature of 25° C. and a humidity of 60%. […] The test was repeated twice.

melting point | SMILES | insecticidal rate (Aphis craccivora) | insecticidal rate (Plutella xylostella)
209 to 210 °C | CCS(=O)(=O)c1cnc(-c2ncccn2)nc1-c1ccc(OCC(F)(F)F)nn1 [2-8] | – | –
212 to 214 °C | CCS(=O)(=O)c1cnc(O)cc1-c1ccc(OCC(F)(F)C(F)(F)F)cn1 [2-11] | – | –

Continued, compound first:

SMILES | melting point | insecticidal rate (Aphis craccivora) | insecticidal rate (Plutella xylostella)
Br.CCS(=O)(=O)c1cnc(-c2ncccn2)nc1-c1ccc(O)cn1 | 234 to 239 °C | – | –
CCS(=O)(=O)c1cnc(-c2ncn(C)n2)nc1-c1ccc(C(F)(F)C(F)(F)C(F)(F)C(F)(F)F)nn1 | 182 to 185 °C | – | –
CCS(=O)(=O)c1cnc(N)nc1-c1ccc(C(F)(F)C(F)(F)C(F)(F)C(F)(F)F)nn1 | 186 to 188 °C | – | –
CCS(=O)(=O)c1cnc(NC(=O)C(F)(F)F)nc1-c1ccc(OCC(F)(F)C(F)(F)C(F)(F)F)cn1 [1-80] | – | ≥ 80% | ≥ 80%
